Tested on: cancer cell lines HCT-116, SCC VII, and A549
Format: cell-based

`O=C(CBr)N1CC([N+](=O)[O-])([N+](=O)[O-])C1` [Sample 2, 2-bromo-1-(3,3-dinitroazetidin-1-yl)ethanone] was tested, and the “suppressing viability of cancer cell lines, compared to impact sensitive form of ABDNAZ (samples 1 and 3)” value was “more effective”.

Reference: patent US20240293360A1 (priority 2021, published 2024)
